Values belong to the compound of their own block, whether it stands above or below them.
Assays:
grass DHS enzymes = assay: DHS activity: effector inhibition; assay type: biochemical; conditions: 0.5 mM (FIGS. 4, 15, 17)
Experimental: (§1) As recent studies have shown that plant DHS enzymes are feedback-inhibited by multiple effector molecules^15, 16, we tested the effect of AAAs and another 14 related metabolites, including various intermediates of the shikimate pathway and the pathways downstream of AAAs, on Brachypodium DHS enzymes.
(§2) The DHS assay for UHPLC-MS quantification was set up using the same settings as described in the previous paragraph for the UV-based DHS assay, which guaranteed at least 10 minutes of reaction linearity. After a 10-minute incubation, 20 μL of the reactions (out of a total volume of 50 μL) were mixed into 80 μL of methanol, vortexed and transferred to vials for injection. Analysis of DAHP by UHPLC-MS was conducted using the same chromatographic settings as described for the UHPLC-MS analysis of soluble metabolites and compared with an authentic DAHP standard (Sta. Cruz biotechnology, cat. no. sc-216432).

[1] = DHS inhibition by tryptophan; assay type: biochemical; conditions: FIG. 18
Experimental: as §2

[2] = DHS activity with combinations of effectors; assay type: biochemical; conditions: 0.15 mM each effector (FIG. 19)
Experimental: DHS effector molecules can have synergistic effects when combined in vitro^51. To explore this possibility, we tested the impact of different combinations of tryptophan, tyrosine, arogenate and chorismate, at 0.15 mM each, on the activity of Brachypodium DHS enzymes.

[3] = DHS inhibition by arogenate; assay type: biochemical; conditions: FIG. 18
Experimental: as §2

[4] = tested on: Nicotiana benthamiana leaves; assay: Transient expression of Brachypodium DHS in Nicotiana benthamiana leaves (AtRbcS3B promoter), UHPLC-MS; assay type: in vivo; conditions: three days after transient expression
Experimental: Agrobacterium tumefaciens strain GV3101 transformed with the plant expression constructs were grown at 28° C. for 24 to 36 hours in 10 mL of LB liquid media containing the corresponding antibiotics. The saturated cultures were spun down at 3,000 g for 5 minutes at room temperature and washed twice with 3 mL of induction media (IM; 10 mM MES [2-(N-morpholino) ethanesulfonic acid] buffer pH 5.6, 0.5% glucose, 2 mM NaH2PO4, 20 mM NH4Cl, 1 mM MgSO4, 2 mM KCl, 0.1 mM CaCl2), 0.01 mM FeSO4, and 0.2 mM acetosyringone). After washing, bacteria cultures were incubated in IM for 2 to 3 hours at room temperature in the dark, pelleted at 3000 g for 5 minutes, and resuspended into 3 mL of 10 mM MES buffer pH 5.6 with 0.2 mM acetosyringone. OD600nm was adjusted to a final density of 0.25 units for pAGM4673::TyrA (FIG. 3F) and pICH47822::DHS (FIG. 5A) infiltration, or 0.5 units for pAGM4673::TyrA-DHS co-expression constructs (FIG. 5B) using 10 mM MES buffer pH 5.6 with 0.2 mM acetosyringone. For infiltration of pICH47822::DHS constructs, the Agrobacterium suspensions were adjusted to OD600nm=0.5 and mixed with an equal volume of a suspension of an Agrobacterium clone transformed with pICH4780::p19 under control of the Arabidopsis ubiquitin ligase promoter adjusted to OD600nm=0.5, resulting in a final mixture of 0.25 OD600nm units for each construct. […] Nicotiana benthamiana plants of around 4-weeks-old were infiltrated close to the end of the light period into four different spots per plant, distributed into two leaves at two infiltrations per leaf, with each individual spot corresponding with a different construct/treatment. In total, each construct was infiltrated as 5 or 6 independent replicates into different plants following a randomized pattern. Samples consisting of the infiltrated leaf limbs, without the main veins, were harvested at ˜72 hours post infiltration and subjected to HPLC or UHPLC-MS analysis (see details below).
Around 30-40 mg of pulverized frozen plant tissue were resuspended into 400 μL of chloroform:methanol (1:2) for ˜1 hour with regular vortexing, followed by centrifugation at 20,000 g for 5 minutes at room temperature. The whole supernatant was transferred to a fresh tube, mixed with 125 μL of chloroform, 300 μL of water, and spun down at 15,000 g for 5 minutes for phase separation. The upper, aqueous phase was recovered and dried down for 4 hours to overnight in a speed-vac at 40° C. The dried pellets were resuspended into 100 μL of methanol 80%, spun down at 20,000 g for 5 minutes, and the supernatant transferred to vials for injection. All reagents used for the extraction were UHPLC-MS grade.
Aromatic amino acids and shikimate were detected using a Vanquish Horizon Binary UHPLC (Thermo Scientific) coupled to a Q Exactive mass spectrometer (Thermo Scientific). Two microliters of the sample were analyzed using a InfinityLab Poroshell 120 HILIC-Z column (150×2.1 mm, 2.7-μm particle size; Agilent) in a gradient of 5 mM ammonium acetate/0.2% acetic acid buffer in water (solvent A) and 5 mM ammonium acetate/0.2% acetic acid buffer in 95% acetonitrile (solvent B) at a flow rate of 0.45 mL/min and column temperature of 40° C. The phase B gradient was: 0-2 min, 94%; 2-9 min, 94-88%; 9-19 min, 88-71%; 19-20 min, 71-20%, 20-21.5 min, 20%; 21.5-22 min, 20-94%; 22-25 min, 94%. All chemicals used to prepare the mobile phases were LC-MS grade. Full MS spectra were recorded between 2 and 19 minutes using full scan in negative mode, under the following parameters: sheath gas flow rate, 55; auxiliary gas flow rate, 20; sweep gas flow rate, 2; spray voltage, 3 kV; capillary temperature, 400° C.; S-lens RF level, 50; resolution, 70,000; AGC target 3×10^6, maximum scan time 100 ms; scan range 70-1050 m/z. Spectral data were integrated manually using Xcalibur 3.0. For ^13C labeled plant samples, ^13C-isotopologues were detected based on a mass increase of 1.00335 atomic mass units for each ^13C atom. […]

[5] = tested on: recombinant Sorghum DHS enzymes; assay: DHS activity: effector inhibition; assay type: biochemical, Sorghum bicolor; conditions: 0.5 mM (FIG. 17)
Experimental: (§3) In contrast, BdDHS1b was not inhibited by arogenate even up to 2.5 mM. In fact, DHS1b activity increased in the presence of high concentrations of arogenate (FIG. 4F), likely due to high concentrations of contaminant NaCl present in the arogenate preparation (FIG. 16). Under acidic conditions, arogenate is known to undergo a spontaneous dehydration and decarboxylation into […]. […] Like in Brachypodium DHS enzymes, 0.5 mM arogenate inhibited SbDHS1a and SbDHS2 at ˜50% and ˜40%, respectively, but had no effect on SbDHS1b.

[6] = tested on: Nicotiana benthamiana leaves; assay: Transient expression of DHS1b orthologs in Nicotiana benthamiana leaves, LCMS (FIG. 21); assay type: in vivo; conditions: 72 hours post-infiltration; for effect on levels of aromatic amino acids and their precursor molecules: vs YPet
Source text: To determine whether the grass DHS1b gene encodes a deregulated DHS in other grass species besides Brachypodium distachyon, BdDHS1b orthologs from Oryza sativa (OsDHS1b) and Sorghum bicolor (SbDHS1b) were cloned into the Golden Gate plant expression vector pICH47822 under control of the RuBisCO small subunit 3B promoter from Arabidopsis thaliana.^52 A 3× human influenza hemagglutinin tag was fused in frame to the C-terminus of the DHS genes to confirm the production of heterologous DHS protein.
Agrobacterium tumefaciens (strain GV3101) clones transformed with the OsDHS1b and SbDHS1b plant expression constructs were infiltrated into the leaves of Nicotiana benthamiana side-by-side with Agrobacterium clones expressing BdDHS1a, BdDHS1b, and the fluorescent protein YPet (negative control). The levels of phenylalanine, tyrosine, tryptophan, and three of their biosynthetic intermediates (shikimate, prephenate, and arogenate) were determined at 72 hours post-infiltration by liquid chromatography coupled to mass spectrometry (LCMS). […] On average, expression of BdDHS1b or OsDHS1b increased phenylalanine, tyrosine, and shikimate levels by 5 to 20-times compared to the YPet negative control (FIG. 21), whereas prephenate and arogenate rose to ˜100-times the control (FIG. 21). […] Based on these findings, BdDHS1b and OsDHS1b, but not SbDHS1b, encode DHS enzymes that can boost the accumulation of aromatic amino acids in planta upon heterologous expression.

[7] = target: Brachypodium distachyon BdDHS2, SEQ ID NO: 5, recombinant (Brachypodium distachyon, UniProt I1I809); assay: DHS activity: kinetics and effector inhibition; assay type: biochemical
Source text: (§4) To examine their functional properties, the recombinant DHS enzymes of Brachypodium were produced and characterized in vitro.
as §1, §2

[8] = target: Brachypodium distachyon BdDHS1b, SEQ ID NO: 3, recombinant (Brachypodium distachyon, UniProt I1H4W3); assay: DHS activity: kinetics and effector inhibition; assay type: biochemical
Source text: as §4, §1, §2

[9] = target: Brachypodium distachyon BdDHS1a, SEQ ID NO: 1, recombinant (Brachypodium distachyon, UniProt I1GSB3); assay: DHS activity: kinetics and effector inhibition
Source text: as §4, §1, §2

[10] = target: T1, Sorghum bicolor SbDHS2, SEQ ID NO: 13, recombinant (Sorghum bicolor, UniProt C5YJQ4); assay: DHS activity: effector inhibition; assay type: biochemical; conditions: effector 0.5 mM
T1 construct: pET28a (NdeI/BamHI), E. coli KRX
Experimental: as §3

[11] = target: T2, Sorghum bicolor SbDHSnc, SEQ ID NO: 15, recombinant (Sorghum bicolor, UniProt C5WRG8); assay: DHS activity: effector inhibition; assay type: biochemical; conditions: effector 0.5 mM
T2 construct: synthesized into pET28a, E. coli KRX
Experimental: as §3

Chain of Brachypodium distachyon BdDHS1b, SEQ ID NO: 3, recombinant (I1H4W3 37-542): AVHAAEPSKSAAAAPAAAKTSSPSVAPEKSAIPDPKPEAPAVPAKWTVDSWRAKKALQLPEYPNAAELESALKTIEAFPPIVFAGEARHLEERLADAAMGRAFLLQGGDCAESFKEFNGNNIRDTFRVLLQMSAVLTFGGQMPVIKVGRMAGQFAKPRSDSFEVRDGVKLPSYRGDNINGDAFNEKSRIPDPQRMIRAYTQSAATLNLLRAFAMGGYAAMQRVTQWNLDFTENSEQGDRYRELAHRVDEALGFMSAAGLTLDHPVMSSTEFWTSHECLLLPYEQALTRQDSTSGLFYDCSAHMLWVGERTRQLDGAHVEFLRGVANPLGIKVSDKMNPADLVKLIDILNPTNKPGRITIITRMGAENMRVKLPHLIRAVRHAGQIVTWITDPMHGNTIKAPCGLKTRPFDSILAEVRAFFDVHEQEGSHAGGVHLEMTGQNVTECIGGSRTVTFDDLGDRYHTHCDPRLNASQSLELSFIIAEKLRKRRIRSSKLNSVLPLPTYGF
Chain of Brachypodium distachyon BdDHS1a, SEQ ID NO: 1, recombinant (I1GSB3 46-537): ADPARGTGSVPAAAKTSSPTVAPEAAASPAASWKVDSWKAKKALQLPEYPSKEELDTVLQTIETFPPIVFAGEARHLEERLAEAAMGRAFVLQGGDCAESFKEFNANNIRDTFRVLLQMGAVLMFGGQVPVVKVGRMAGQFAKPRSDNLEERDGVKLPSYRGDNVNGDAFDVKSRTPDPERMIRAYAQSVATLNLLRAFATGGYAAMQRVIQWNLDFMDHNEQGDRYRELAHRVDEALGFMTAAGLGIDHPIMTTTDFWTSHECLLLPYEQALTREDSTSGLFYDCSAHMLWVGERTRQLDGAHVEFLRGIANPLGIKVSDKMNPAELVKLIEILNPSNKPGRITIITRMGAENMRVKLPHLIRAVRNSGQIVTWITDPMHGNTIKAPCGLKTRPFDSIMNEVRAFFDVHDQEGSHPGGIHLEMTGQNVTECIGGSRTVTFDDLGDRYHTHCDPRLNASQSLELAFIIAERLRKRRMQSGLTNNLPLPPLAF
Chain of Brachypodium distachyon BdDHS2, SEQ ID NO: 5, recombinant (I1I809 31-503): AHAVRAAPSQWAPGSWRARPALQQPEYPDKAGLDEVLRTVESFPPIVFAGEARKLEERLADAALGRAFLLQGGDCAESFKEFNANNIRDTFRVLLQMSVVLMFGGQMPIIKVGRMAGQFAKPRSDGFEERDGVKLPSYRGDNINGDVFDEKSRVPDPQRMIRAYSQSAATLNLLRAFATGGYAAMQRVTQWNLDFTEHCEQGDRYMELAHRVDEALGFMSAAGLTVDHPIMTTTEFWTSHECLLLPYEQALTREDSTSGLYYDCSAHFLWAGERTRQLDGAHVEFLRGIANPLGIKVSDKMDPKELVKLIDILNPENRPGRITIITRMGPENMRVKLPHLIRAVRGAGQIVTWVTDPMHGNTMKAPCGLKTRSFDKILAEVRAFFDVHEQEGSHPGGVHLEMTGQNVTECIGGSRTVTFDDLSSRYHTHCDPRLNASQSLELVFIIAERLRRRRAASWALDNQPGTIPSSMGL
T2 sequence (C5WRG8 36-499): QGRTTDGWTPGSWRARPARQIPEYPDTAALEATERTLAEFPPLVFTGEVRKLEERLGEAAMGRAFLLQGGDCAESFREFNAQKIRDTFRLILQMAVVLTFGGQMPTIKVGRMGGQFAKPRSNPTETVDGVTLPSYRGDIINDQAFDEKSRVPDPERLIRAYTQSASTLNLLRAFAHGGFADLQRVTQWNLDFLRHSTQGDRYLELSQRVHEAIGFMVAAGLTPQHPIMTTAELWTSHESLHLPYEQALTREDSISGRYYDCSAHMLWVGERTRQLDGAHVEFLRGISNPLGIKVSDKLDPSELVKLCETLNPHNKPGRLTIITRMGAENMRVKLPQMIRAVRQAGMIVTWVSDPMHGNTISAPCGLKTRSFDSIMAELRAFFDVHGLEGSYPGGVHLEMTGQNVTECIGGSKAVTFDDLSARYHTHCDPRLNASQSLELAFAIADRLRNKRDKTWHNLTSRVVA
T1 sequence (C5YJQ4 42-508): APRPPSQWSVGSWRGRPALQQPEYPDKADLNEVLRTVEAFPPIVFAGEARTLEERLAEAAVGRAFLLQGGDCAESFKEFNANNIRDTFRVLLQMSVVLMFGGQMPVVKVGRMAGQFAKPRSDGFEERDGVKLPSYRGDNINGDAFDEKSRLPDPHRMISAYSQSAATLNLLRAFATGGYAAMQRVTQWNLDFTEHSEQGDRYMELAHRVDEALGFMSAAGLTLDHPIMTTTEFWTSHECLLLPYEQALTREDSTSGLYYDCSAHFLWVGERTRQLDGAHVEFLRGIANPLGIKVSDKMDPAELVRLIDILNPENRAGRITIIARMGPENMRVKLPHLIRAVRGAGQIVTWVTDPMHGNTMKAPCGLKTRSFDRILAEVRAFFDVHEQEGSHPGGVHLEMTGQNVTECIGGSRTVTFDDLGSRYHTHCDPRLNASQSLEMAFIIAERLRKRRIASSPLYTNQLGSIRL

Compound: O=C(O)Cc1cc(O)ccc1O [homogentisic acid]
- effect on grass DHS at 0.5 mM (grass DHS enzymes): little effect

- effect on grass DHS at 0.5 mM (grass DHS enzymes): little effect
Compound: O=C(O)/C=C/c1ccc(O)c(O)c1 [caffeic acid]

Compound: BdDHS2: DHS2 enzyme of Brachypodium distachyon, SEQ ID NO: 5
- inhibition mechanism of tryptophan in respect to E4P [1]: uncompetitive inhibition
- impact of effector combinations on DHS activity [2]: additional inhibition
- inhibition mechanism of arogenate for PEP [3]: mixed inhibition
- inhibition mechanism of arogenate in respect to E4P [3]: uncompetitive inhibition
- phenylalanine accumulation compared to tdTomato control [4]: did not significantly alter
- shikimate accumulation compared to tdTomato control [4]: did not significantly alter
- tryptophan accumulation compared to tdTomato control [4]: did not significantly alter
- tyrosine accumulation compared to tdTomato control [4]: did not significantly alter

- inhibition at 0.5 mM [5]: no strong inhibition
- effect on grass DHS at 0.5 mM (grass DHS enzymes): did not cause significant effects
Compound: N[C@@H](Cc1ccccc1)C(=O)O [phenylalanine]

Compound: SbDHS1b: DHS1b enzyme of Sorghum bicolor, SEQ ID NO: 11
- effect on levels of aromatic amino acids and their precursor molecules [6]: little or no significant effect

- H Coefficient (only E4P) ([7]; 1.5 mM PEP): 1.5
- kcat/EC50 (E4P) [8]: 28300 M⁻¹ s⁻¹
- H Coefficient (only E4P) ([8]; 1.5 mM PEP): 2.1
- Km ([8]; 1.5 mM PEP, 37° C., read-out: EC50 (E4P) (K0.5)): 400 µM
- H Coefficient (only E4P) ([9]; 1.5 mM PEP): 1.8
Compound: O=C[C@H](O)[C@H](O)COP(=O)(O)O [E4P, erythrose 4-phosphate]

Compound: OsDHS1b: DHS1b enzyme of Oryza sativa, SEQ ID NO: 19
- prephenate and arogenate relative to the control [6]: ~100 times
- effect on levels of aromatic amino acids and their precursor molecules [6]: increased levels of all measured metabolites except for tryptophan

Compound: BdDHS1a: DHS1a enzyme of Brachypodium distachyon, SEQ ID NO: 1
- impact of effector combinations on DHS activity [2]: additional inhibition
- phenylalanine accumulation compared to tdTomato control [4]: did not significantly alter
- shikimate accumulation compared to tdTomato control [4]: did not significantly alter
- tryptophan accumulation compared to tdTomato control [4]: did not significantly alter
- tyrosine accumulation compared to tdTomato control [4]: did not significantly alter

- IC50 ([7]; 1.5 mM PEP, 2 mM E4P, read-out: IC50 (tryptophan)): 120 µM
- mode of inhibition with respect to E4P ([7]; FIG. 18): uncompetitive inhibition kinetics
- mode of inhibition with respect to PEP ([7]; FIG. 18): non-competitive inhibition
- effect of tryptophan ([8]; 0.5 mM (FIG. 4C)): no effect
- IC50 ([8]; read-out: IC50 (tryptophan)): > 500 µM
- effect of tryptophan ([9]; 0.5 mM (FIG. 4C)): no effect
- IC50 ([9]; IC50 (tryptophan), 1.5 mM PEP, 2 mM E4P): > 500 µM
- inhibition at 500 µM [10]: 40 to 50%
- inhibition at 500 µM [11]: 40 to 50%
Compound: N[C@@H](Cc1c[nH]c2ccccc12)C(=O)O [tryptophan]

- effect on grass DHS at 0.5 mM (grass DHS enzymes): little effect
Compound: C=C(O[C@@H]1C=C(C(=O)O)C=C[C@H]1O)C(=O)O [chorismate]

From patent US20250115926A1, “DEREGULATED DHS AND TYRA ENZYMES OF GRASSES ENABLE EFFICIENT PRODUCTION OF BOTH TYROSINE AND PHENYLALANINE” (Wisconsin Alumni Research Foundation, priority 2023, published 2025)
